The target in this test is T1, human P2X4 (Homo sapiens, UniProt Q99571).
T1 sequence (Q99571 1-388): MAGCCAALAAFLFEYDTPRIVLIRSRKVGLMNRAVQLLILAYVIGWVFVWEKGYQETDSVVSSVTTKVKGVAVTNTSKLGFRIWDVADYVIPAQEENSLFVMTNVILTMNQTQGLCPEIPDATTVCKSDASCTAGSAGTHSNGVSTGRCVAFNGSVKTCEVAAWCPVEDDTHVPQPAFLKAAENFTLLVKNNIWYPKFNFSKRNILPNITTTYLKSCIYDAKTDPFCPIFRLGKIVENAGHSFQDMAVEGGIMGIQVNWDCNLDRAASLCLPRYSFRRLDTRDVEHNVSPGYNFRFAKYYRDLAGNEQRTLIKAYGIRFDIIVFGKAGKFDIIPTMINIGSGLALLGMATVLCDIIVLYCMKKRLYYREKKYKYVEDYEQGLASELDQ
Put plainly: Human P2X4 HEK Cell FLIPR Assay. Type of test: cell-based. Particulars: agonist Bz-ATP at EC80; for Emax: HEK293, HEK293 cells, percentage of maximal inhibition, read-out: Human P2X4 HEK Cells (FLIPR Assay) avg Efficacy [%]; for IC50: HEK293 cells, individual values listed where some fall outside detection range. The procedure, abridged: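 HEK293 cells stably expressing human P2X4, Fluo8-AM loaded 30 min at 37° C, then compound 30 min at room temperature (0.5% DMSO, pH 7.4 buffer with 1.8 mM CaCl2). Bz-ATP at its daily-determined EC80 added; calcium fluorescence read over 120 sec; IC50 from peak RFU normalized to agonist control, triplicates.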

Take `Cc1cccc(CC(=O)Nc2ccc(-n3cc(Cl)cn3)c(S(N)(=O)=O)c2)c1` [Example 174, N-[4-(4-Chloro-1H-pyrazol-1-yl)-3-sulfamoylphenyl]-2-(3-methylphenyl)acetamide]: the Emax came out at 79% and the IC50 stood at 45 nM.

For the compound `CCOc1ccccc1CC(=O)Nc1ccc(-n2cc(Cl)cn2)c(S(N)(=O)=O)c1` [Example 175, N-[4-(4-Chloro-1H-pyrazol-1-yl)-3-sulfamoylphenyl]-2-(2-ethoxyphenyl)acetamide], the Emax is 88% and the IC50 worked out at 226 nM.

As for `CCOc1ccccc1CC(=O)Nc1ccc(-n2cc(C(F)(F)F)cn2)c(S(N)(=O)=O)c1` [Example 176, 2-(2-Ethoxyphenyl)-N-{3-sulfamoyl-4-[4-(trifluoromethyl)-1H-pyrazol-1-yl]phenyl}acetamide], the Emax was determined as 71% and the IC50 is 268 nM.

For `NS(=O)(=O)c1cc(NC(=O)Cc2ccccc2Br)ccc1-n1cc(F)cn1` [Example 177, 2-(2-Bromophenyl)-N-[4-(4-fluoro-1H-pyrazol-1-yl)-3-sulfamoylphenyl]acetamide], the Emax was 83% and the IC50 stood at 35 nM.

`NS(=O)(=O)c1cc(NC(=O)Cc2ccc(Cl)cc2Cl)ccc1-n1cc(F)cn1` [Example 178, 2-(2,4-Dichlorophenyl)-N-[4-(4-fluoro-1H-pyrazol-1-yl)-3-sulfamoylphenyl]acetamide]: the Emax turned out to be 70% and the IC50 came out at 40 nM.

For the compound `NS(=O)(=O)c1cc(NC(=O)Cc2c(Cl)cccc2Cl)ccc1-n1cc(F)cn1` [Example 179, 2-(2,6-Dichlorophenyl)-N-[4-(4-fluoro-1H-pyrazol-1-yl)-3-sulfamoylphenyl]acetamide], the Emax came to 89% and the IC50 is 35 nM.

Turning to `N#Cc1cnn(-c2ccc(NC(=O)Cc3ccccc3[N+](=O)[O-])cc2S(N)(=O)=O)c1` [Example 180, N-[4-(4-Cyano-1H-pyrazol-1-yl)-3-sulfamoylphenyl]-2-(2-nitrophenyl)acetamide], the Emax stood at 77% and the IC50 came to 319 nM.

With `N#Cc1cnn(-c2ccc(NC(=O)Cc3ccc(Cl)cc3)cc2S(N)(=O)=O)c1` [Example 181, 2-(4-Chlorophenyl)-N-[4-(4-cyano-1H-pyrazol-1-yl)-3-sulfamoylphenyl]acetamide], the Emax was found to be 59% and the IC50 came out at 179 nM.

`COc1ccccc1CC(=O)Nc1ccc(-n2cc(C#N)cn2)c(S(N)(=O)=O)c1` [Example 182, N-[4-(4-Cyano-1H-pyrazol-1-yl)-3-sulfamoylphenyl]-2-(2-methoxyphenyl)acetamide]: the Emax is 89% and the IC50 is 161 nM.

For `N#Cc1cnn(-c2ccc(NC(=O)Cc3c(F)cccc3Cl)cc2S(N)(=O)=O)c1` [Example 183, 2-(2-Chloro-6-fluorophenyl)-N-[4-(4-cyano-1H-pyrazol-1-yl)-3-sulfamoylphenyl]-acetamide], the Emax is 96% and the IC50 was 39 nM.

`N#Cc1cnn(-c2ccc(NC(=O)Cc3ccccc3C(F)(F)F)cc2S(N)(=O)=O)c1` [Example 184, N-[4-(4-Cyano-1H-pyrazol-1-yl)-3-sulfamoylphenyl]-2-[2-(trifluoromethyl)-phenyl]acetamide]: the Emax was 96% and the IC50 was 67 nM.

Take `N#Cc1cnn(-c2ccc(NC(=O)Cc3cccc(F)c3)cc2S(N)(=O)=O)c1` [Example 185, N-[4-(4-Cyano-1H-pyrazol-1-yl)-3-sulfamoylphenyl]-2-(3-fluorophenyl)acetamide]: the Emax is 71% and the IC50 amounted to 248 nM.

For the compound `N#Cc1cnn(-c2ccc(NC(=O)Cc3ccc(Cl)cc3Cl)cc2S(N)(=O)=O)c1` [Example 186, N-[4-(4-Cyano-1H-pyrazol-1-yl)-3-sulfamoylphenyl]-2-(2,4-dichlorophenyl)acetamide], the Emax is 78% and the IC50 was determined as 40 nM.

In the case of `N#Cc1cnn(-c2ccc(NC(=O)Cc3c(Cl)cccc3Cl)cc2S(N)(=O)=O)c1` [Example 187, N-[4-(4-Cyano-1H-pyrazol-1-yl)-3-sulfamoylphenyl]-2-(2,6-dichlorophenyl)acetamide], the Emax was determined as 84% and the IC50 stood at 33 nM.

As to `N#Cc1cnn(-c2ccc(NC(=O)Cc3ccccc3Br)cc2S(N)(=O)=O)c1` [Example 188, 2-(2-Bromophenyl)-N-[4-(4-cyano-1H-pyrazol-1-yl)-3-sulfamoylphenyl]acetamide], the Emax is 89% and the IC50 was found to be 31 nM.

With `N#Cc1cnn(-c2ccc(NC(=O)Cc3ccc(F)c(F)c3)cc2S(N)(=O)=O)c1` [Example 189, N-[4-(4-Cyano-1H-pyrazol-1-yl)-3-sulfamoylphenyl]-2-(3,4-difluorophenyl)acetamide], the Emax came out at 60% and the IC50 is 199 nM.

Turning to `N#Cc1cnn(-c2ccc(NC(=O)Cc3cc(F)cc(F)c3)cc2S(N)(=O)=O)c1` [Example 190, N-[4-(4-Cyano-1H-pyrazol-1-yl)-3-sulfamoylphenyl]-2-(3,5-difluorophenyl)acetamide], the Emax came to 58% and the IC50 turned out to be 540 nM.

As to `N#Cc1cnn(-c2ccc(NC(=O)Cc3cccc(Cl)c3)cc2S(N)(=O)=O)c1` [Example 191, 2-(3-Chlorophenyl)-N-[4-(4-cyano-1H-pyrazol-1-yl)-3-sulfamoylphenyl]acetamide], the Emax is 76% and the IC50 came to 180 nM.

For the compound `N#Cc1cnn(-c2ccc(NC(=O)Cc3ccc(F)cc3)cc2S(N)(=O)=O)c1` [Example 192, N-[4-(4-Cyano-1H-pyrazol-1-yl)-3-sulfamoylphenyl]-2-(4-fluorophenyl)acetamide], the Emax is 69% and the IC50 came out at 575 nM.

Regarding `N#Cc1cnn(-c2ccc(NC(=O)Cc3ccccc3O)cc2S(N)(=O)=O)c1` [Example 193, N-[4-(4-Cyano-1H-pyrazol-1-yl)-3-sulfamoylphenyl]-2-(2-hydroxyphenyl)acetamide], the Emax amounted to 84% and the IC50 was determined as 427 nM.

As to `N#Cc1cnn(-c2ccc(NC(=O)Cc3ccc(O)cc3)cc2S(N)(=O)=O)c1` [Example 194, N-[4-(4-Cyano-1H-pyrazol-1-yl)-3-sulfamoylphenyl]-2-(4-hydroxyphenyl)acetamide], the Emax is 84% and the IC50 was determined as 325 nM.

With `Cc1ccc(CC(=O)Nc2ccc(-n3cc(C#N)cn3)c(S(N)(=O)=O)c2)cc1` [Example 195, N-[4-(4-Cyano-1H-pyrazol-1-yl)-3-sulfamoylphenyl]-2-(4-methylphenyl)acetamide], the Emax was determined as 68% and the IC50 worked out at 86 nM.

As to `COc1ccc(CC(=O)Nc2ccc(-n3cc(C#N)cn3)c(S(N)(=O)=O)c2)cc1` [Example 196, N-[4-(4-Cyano-1H-pyrazol-1-yl)-3-sulfamoylphenyl]-2-(4-methoxyphenyl)acetamide], the Emax is 75% and the half-inhibitory concentration (IC50) came out at 164 nM.

In the case of `Cc1ccccc1CC(=O)Nc1ccc(-n2cc(C#N)cn2)c(S(N)(=O)=O)c1` [Example 197, N-[4-(4-Cyano-1H-pyrazol-1-yl)-3-sulfamoylphenyl]-2-(2-methylphenyl)acetamide], the Emax amounted to 87% and the IC50 was 86 nM.

In the case of `Cc1cccc(CC(=O)Nc2ccc(-n3cc(C#N)cn3)c(S(N)(=O)=O)c2)c1` [Example 198, N-[4-(4-Cyano-1H-pyrazol-1-yl)-3-sulfamoylphenyl]-2-(3-methylphenyl)acetamide], the Emax was determined as 94% and the 50% inhibitory concentration (IC50) came to 136 nM.

As to `CCOc1ccccc1CC(=O)Nc1ccc(-n2cc(C#N)cn2)c(S(N)(=O)=O)c1` [Example 199, N-[4-(4-Cyano-1H-pyrazol-1-yl)-3-sulfamoylphenyl]-2-(2-ethoxyphenyl)acetamide], the Emax is 85% and the IC50 was 299 nM.

Regarding `N#Cc1cnn(-c2ccc(NC(=O)Cc3cccc(F)c3F)cc2S(N)(=O)=O)c1` [Example 200, N-[4-(4-Cyano-1H-pyrazol-1-yl)-3-sulfamoylphenyl]-2-(2,3-difluorophenyl)acetamide], the Emax came to 90% and the half-inhibitory concentration (IC50) turned out to be 131 nM.

Regarding `N#Cc1cnn(-c2ccc(NC(=O)Cc3cccnc3Cl)cc2S(N)(=O)=O)c1` [Example 201, 2-(2-Chloropyridin-3-yl)-N-[4-(4-cyano-1H-pyrazol-1-yl)-3-sulfamoylphenyl]-acetamide], the Emax amounted to 83% and the IC50 was 4330 nM.

Regarding `N#Cc1cnn(-c2ccc(NC(=O)Cc3ccc(F)cc3Cl)cc2S(N)(=O)=O)c1` [Example 202, 2-(2-Chloro-4-fluorophenyl)-N-[4-(4-cyano-1H-pyrazol-1-yl)-3-sulfamoylphenyl]-acetamide], the Emax was 90% and the half-maximal inhibitory concentration (IC50) was 48 nM.

For the compound `N#Cc1cnn(-c2ccc(NC(=O)Cc3ccccc3OC(F)F)cc2S(N)(=O)=O)c1` [Example 203, N-[4-(4-Cyano-1H-pyrazol-1-yl)-3-sulfamoylphenyl]-2-[2-(difluoromethoxy)phenyl]-acetamide], the Emax turned out to be 86% and the IC50 is 99 nM.

A word on the IC50: it is the midpoint of a concentration-inhibition curve.

For the origin of these results see patent US11524938B2, “Aromatic sulfonamide derivatives” (Bayer Pharma Aktiengesellschaft, priority 2016, dated 2022).
